Experiments:
human EP4 = target: T1, human EP4 (Homo sapiens, UniProt P35408); experiment: cAMP Gs functional assay (HTRF cAMP dynamic-2); format: cell-based; conditions: for Emax: HEK293, HEK293 cells transfected with EP4 Bacmam virus; for EC50: 30 mins at 37° C., −Log of the molarity (M), read-out: cAMP human EP4 pEC50 (converted)
T1 construct: expressed in transfected cells; host or cells: HEK293 cells transduced with EP4 BacMam virus
Protocol: Cloning, Baculovirus generation, large scale infection of HEK293 cells and membrane preparation: Human prostaglandin E2 receptor 4 (EP4) was cloned into pBacMam expression vector (GeneScript, UK). Transposition of EP4 DNA was performed using Invitrogen's Bac-to-Bac Baculovirus Expression Systems. P0 baculovirus was generated by transfecting SF9 Cells with bacmid DNA using Cellfectin II transfection reagent (ThermoFisher Scientific, UK). Following P0 generation P1 virus was then generated ready for large scale infection and membrane preparation. HEK293 cells were grown in DMEM (ThermoFisher Scientific, UK), supplemented with 10% heat inactivated fetal bovine serum (FBS). Cells were infected at a seeding density of 3.5 million cells/mL in 500 cm^3 flasks at 5% v/v EP4 Bacman. Expression was carried out over a 36 hr period at 37° C. with 5% CO2. The cells were removed using PBS and a cell scrapper. The cell culture was centrifuged at 2500 RPM for 10 mins at 4° C. The supernatant was then poured off and the pellet stored at −80° C. The pellet was defrosted and re-suspended in 15 mL of homogenising buffer (20 mM HEPES, 10 mM EDTA, pH 7.4). Then homogenised in mechanical homogeniser (VMR) for 10 seconds. The membrane was centrifuged in centrifuge tubes at 40,000 g for 15 mins at 4° C. The supernatant was poured away and re-suspended in 15 mL of homogenising buffer. Homogenised for 20 seconds. The membrane was centrifuged at 40,000 g for 45 mins at 4° C. The membrane was re-suspended in 3 mL of storage buffer (20 mM HEPES, 0.1 mM EDTA, pH 7.4) mixing well. The resulting membranes were then stored at −80° C.
cAMP Gs Functional Assay: cAMP production following EP4 receptor activation was determined using the Homogeneous Time-Resolved Fluorescence (HTRF) cAMP dynamic-2 assay (Cisbio, France). HEK293 cells were transfected using a 0.5% EP4 Bacmam virus for 36 hours, before dissociating the cells, and freezing at −150° C.
On the day of testing, increasing concentration of test compounds, alongside positive controls (10 uM PGE2 (Tocris, Abingdon, UK)) and negative control (DMSO (Sigma-Aldrich, UK) were added to a ProxiPlate-384 Plus, White 384-shallow well Mircoplate, (PerkinElmer, USA) using the ECHO dispense.
Cells were defrosted in a water bath and resuspended in DMEM supplemented with 10% FBS before centrifuging at 1200 RPM for 5 mins to form a pellet. The pellet was resuspended in assay buffer (DMEM+0.5 mM IBMX (Tocris, Abingdon, UK)) to 0.5×10^6 cells/mL. Cell suspension, for a final assay concentration of 5000 cell/well was added using the multidrop to the pre-dispensed assay plate. The plate was then incubated at 37° C. for 30 mins, with 5% CO2. The cAMP production was determined as manufacturer's instructions, before plates were read on a PheraStar fluorescence plate reader (BMG LabTech, Germany).
The pEC50 values (−Log of the molarity (M) in mol/liter) were calculated from the mid-point of the curve using dotmatics as shown in Table 3.

[1] = Unidirectional Caco-2 cell permeability assay; format: in vitro ADME; conditions: human, n=2, apical pH 6.5, basolateral pH 7.4, 1 hour, 37° C.
Protocol: Caco-2 cells (ECACC) were seeded onto 24-well Transwell plates at 2×10^5 cells per well and used in confluent monolayers after a 21 day culture at 37° C. under 5% CO2. Test compounds were incubated at 10 μM, 0.2% DMSO final, n=2 in assay buffer (Hanks balanced salt solution supplemented with 25 mM HEPES, adjusted to pH 6.5). Hanks balanced salt solution supplemented with 25 mM HEPES, adjusted to pH 7.4 (0.2% DMSO final) was used for the basolateral chamber (as receiver).
Incubations were performed at 37° C., with samples removed from both donor and acceptor chambers at T=0 and 1 hour and compound analysed by mass spectrometry (LC-MS/MS) including an analytical internal standard (0.5 μM carbamazepine).
Apparent permeability (Papp) values are shown in Table 4 and were determined from the relationship:
Where V is the volume of each Transwell compartment (apical 125 μL, basolateral 600 μL), and concentrations are the relative MS responses for compound (normalized to internal standard) in the donor chamber before incubation and acceptor chamber at the end of the incubation Area=area of cells exposed for drug transfer (0.33 cm^2).
Lucifer Yellow (LY) was added to the apical buffer in all wells to assess viability of the cell layer. As LY cannot freely permeate lipophilic barriers, a high degree of LY transport indicates poor integrity of the cell layer and wells with a LY Papp>10×10^−6 cm/s were rejected.
Compound recovery from the wells was determined from MS responses (normalized to internal standard) in donor and acceptor chambers at the end of incubation compared to response in the donor chamber pre-incubation.

[2] = HEK293 cells transfected with EP4 Bacmam virus

T1 sequence (P35408 whole entry): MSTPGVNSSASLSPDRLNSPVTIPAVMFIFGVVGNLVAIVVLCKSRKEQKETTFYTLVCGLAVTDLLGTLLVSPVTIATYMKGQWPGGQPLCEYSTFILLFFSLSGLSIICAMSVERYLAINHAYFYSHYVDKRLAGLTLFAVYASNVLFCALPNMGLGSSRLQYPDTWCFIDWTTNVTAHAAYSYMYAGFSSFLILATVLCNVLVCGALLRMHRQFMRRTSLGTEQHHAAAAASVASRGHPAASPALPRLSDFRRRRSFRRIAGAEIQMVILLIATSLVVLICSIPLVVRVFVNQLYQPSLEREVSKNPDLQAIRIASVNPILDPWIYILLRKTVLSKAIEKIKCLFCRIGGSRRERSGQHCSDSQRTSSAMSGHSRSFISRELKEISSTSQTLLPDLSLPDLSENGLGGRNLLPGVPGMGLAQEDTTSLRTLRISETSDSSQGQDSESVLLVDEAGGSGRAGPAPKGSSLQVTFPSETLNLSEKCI

Cc1cc(S(N)(=O)=O)ccc1-c1cccc(CN2CCOC[C@@H]2C(=O)N[C@@H](C)c2ccc(C(=O)O)c(O)c2)c1 [Example 25, 2-hydroxy-4-((S)-1-((R)-4-((2′-methyl-4′-sulfamoyl-[1,1′-biphenyl]-3-yl)methyl)morpholine-3-carboxamido)ethyl)benzoic acid]
Emax (human EP4; positive control 10 uM PGE2): 97%
EC50 (human EP4; [2]): 6.31e-09 M
Papp A→B at 1 h, 10 μM [1]: < 0.1 ×10⁻⁶ cm/s

Cc1cc(C(N)=O)ccc1-c1cc(CN2CCOC[C@@H]2C(=O)N[C@@H](C)c2ccc(C(=O)O)cc2)c[n+]([O-])c1 [Example 30, 3-(4-carbamoyl-2-methylphenyl)-5-(((R)-3-(((S)-1-(4-carboxyphenyl)ethyl)carbamoyl)morpholino)methyl)pyridine 1-oxide]
Emax (human EP4; positive control 10 uM PGE2): 93%
EC50 (human EP4; [2]): 1.58e-07 M

Cc1cc(S(N)(=O)=O)ccc1-c1cc(O)cc(CN2CCOC[C@@H]2C(=O)N[C@@H](C)c2ccc(C(=O)O)c(O)c2)c1 [Example 22, 2-hydroxy-4-((S)-1-((R)-4-((5-hydroxy-2′-methyl-4′-sulfamoyl-[1,1′-biphenyl]-3-yl)methyl)morpholine-3-carboxamido)ethyl)benzoic acid]
Emax (human EP4; positive control 10 uM PGE2): 99%
EC50 (human EP4; [2]): 2.51e-10 M
Papp A→B at 1 h, 10 μM [1]: < 0.2 ×10⁻⁶ cm/s

Cc1cc(C(N)=O)ccc1-c1cc(O)cc(CN2CCOC[C@@H]2C(=O)N[C@@H](C)c2ccc(C(=O)O)c(O)c2)c1 [Example 18, 4-((S)-1-((R)-4-((4′-carbamoyl-5-hydroxy-2′-methyl-[1,1′-biphenyl]-3-yl)methyl)morpholine-3-carboxamido)ethyl)-2-hydroxybenzoic acid]
Emax (human EP4; positive control 10 uM PGE2): 99%
EC50 (human EP4; [2]): 3.98e-10 M
Papp A→B at 1 h, 10 μM [1]: 0.78 ×10⁻⁶ cm/s

Cc1cc(C(N)=O)ccc1-c1ccnc(CN2CCOC[C@@H]2C(=O)N[C@@H](C)c2ccc(C(=O)O)cc2)c1 [Example 4, 4-[(1S)-1-[[(3R)-4-[[4-(4-carbamoyl-2-methyl-phenyl)-2-pyridyl]methyl]morpholine-3-carbonyl]amino]ethyl]benzoic acid]
Emax (human EP4; positive control 10 uM PGE2): 95%
EC50 (human EP4; [2]): 6.31e-08 M
Papp A→B at 1 h, 10 μM [1]: 0.5 ×10⁻⁶ cm/s

Cc1cc(C(N)=O)ccc1-c1cc(CN2CCOC[C@@H]2C(=O)N[C@@H](C)c2ccc(C(=O)O)cc2)ccn1 [Example 3, 4-[(1S)-1-[[(3R)-4-[[2-(4-carbamoyl-2-methyl-phenyl)-4-pyridyl]methyl]morpholine-3-carbonyl]amino]ethyl]benzoic acid]
Emax (human EP4; positive control 10 uM PGE2): 96%
EC50 (human EP4; [2]): 6.31e-08 M
Papp A→B at 1 h, 10 μM [1]: 0.57 ×10⁻⁶ cm/s

Cc1cc(S(N)(=O)=O)ccc1-c1cc(CN2CCOC[C@@H]2C(=O)N[C@@H](C)c2ccc(C(=O)O)cc2)ccn1 [Example 16, 4-[(1S)-1-[[(3R)-4-[[2-(2-methyl-4-sulfamoyl-phenyl)-4-pyridyl]methyl]morpholine-3-carbonyl]amino]ethyl]benzoic acid]
Emax (human EP4; positive control 10 uM PGE2): 97%
EC50 (human EP4; [2]): 1.26e-07 M
Papp A→B at 1 h, 10 μM [1]: < 0.1 ×10⁻⁶ cm/s

Cc1cc(OS(N)(=O)=O)ccc1-c1cc(O)cc(CN2CCOC[C@@H]2C(=O)N[C@@H](C)c2ccc(C(=O)O)cc2)c1 [Example 15, 4-[(1S)-1-[[(3R)-4-[[3-hydroxy-5-(2-methyl-4-sulfamoyloxy-phenyl)phenyl]methyl]morpholine-3-carbonyl]amino]ethyl]benzoic acid]
Emax (human EP4; positive control 10 uM PGE2): 98%
EC50 (human EP4; [2]): 3.98e-10 M
Papp A→B at 1 h, 10 μM [1]: < 0.1 ×10⁻⁶ cm/s

Cc1cc(S(N)(=O)=O)ccc1-c1cc(O)cc(CN2CCOC[C@@H]2C(=O)N[C@@H](C)c2ccc(C(=O)O)cc2)c1 [Example 11, 4-[(1S)-1-[[(3R)-4-[[3-hydroxy-5-(2-methyl-4-sulfamoyl-phenyl)phenyl]methyl]morpholine-3-carbonyl]amino]ethyl]benzoic acid]
Emax (human EP4; positive control 10 uM PGE2): 98%
EC50 (human EP4; [2]): 3.98e-10 M
Papp A→B at 1 h, 10 μM [1]: < 0.1 ×10⁻⁶ cm/s

C[C@H](NC(=O)[C@H]1COCCN1Cc1cccc(-c2ccc(C(N)=O)cc2O)c1)c1ccc(C(=O)O)cc1 [Example 14, 4-((S)-1-((R)-4-((4′-carbamoyl-2′-hydroxy-[1,1′-biphenyl]-3-yl)methyl)morpholine-3-carboxamido)ethyl)benzoic acid]
Emax (human EP4; positive control 10 uM PGE2): 95%
EC50 (human EP4; [2]): 7.94e-08 M
Papp A→B at 1 h, 10 μM [1]: 0.15 ×10⁻⁶ cm/s

C[C@H](NC(=O)[C@H]1COCCN1Cc1cccc(-c2ccc(S(N)(=O)=O)cc2O)c1)c1ccc(C(=O)O)cc1 [Example 29, 4-((S)-1-((R)-4-((2′-hydroxy-4′-sulfamoyl-[1,1′-biphenyl]-3-yl)methyl)morpholine-3-carboxamido)ethyl)benzoic acid]
Emax (human EP4; positive control 10 uM PGE2): 97%

Cc1cc(C(N)=O)ccc1-c1cc(O)cc(CN2CCOC[C@@H]2C(=O)NC2(c3ccc(C(=O)O)cc3)CC2)c1 [Example 33, (R)-4-(1-(4-((4′-carbamoyl-5-hydroxy-2′-methyl-[1,1′-biphenyl]-3-yl)methyl)morpholine-3-carboxamido)cyclopropyl)benzoic acid]
Emax (human EP4; positive control 10 uM PGE2): 93%
EC50 (human EP4; [2]): 3.16e-12 M
Papp A→B at 1 h, 10 μM [1]: 0.14 ×10⁻⁶ cm/s

Cc1cc(C(N)=O)ccc1-c1cccc(CN2CCOC[C@@H]2C(=O)NCc2ccc(C(=O)O)c(F)c2)c1 [Example 13, 4-[[[(3R)-4-[[3-(4-carbamoyl-2-methyl-phenyl)phenyl]methyl]morpholine-3-carbonyl]amino]methyl]-2-fluoro-benzoic acid]
Emax (human EP4; positive control 10 uM PGE2): 96%
EC50 (human EP4; [2]): 1.26e-08 M
Papp A→B at 1 h, 10 μM [1]: 0.32 ×10⁻⁶ cm/s

Cc1cc(C(N)=O)ccc1-c1cncc(CN2CCOC[C@@H]2C(=O)N[C@@H](C)c2ccc(C(=O)O)cc2)c1 [Example 1, 4-((S)-1-((R)-4-((5-(4-carbamoyl-2-methylphenyl)pyridin-3-yl)methyl)morpholine-3-carboxamido)ethyl)benzoic acid]
Emax (human EP4; positive control 10 uM PGE2): 96%
EC50 (human EP4; [2]): 1e-08 M
Papp A→B at 1 h, 10 μM [1]: 0.24 ×10⁻⁶ cm/s

Cc1cc(C(N)=O)ccc1-c1cccc(CN2CCOC[C@@H]2C(=O)NC(C)c2cc(F)c(C(=O)O)c(F)c2)c1 (single isomer, unassigned) [Example 27]
EC50 (human EP4; [2]): 2.51e-07 M
cAMP human EP4 Emax (human EP4; HEK293 cells transfected with EP4 Bacmam virus, positive control 10 uM PGE2): 95%

Cc1cc(OS(N)(=O)=O)ccc1-c1cccc(CN2CCOC[C@@H]2C(=O)N[C@@H](C)c2ccc(C(=O)O)cc2)c1 [Example 20, 4-((S)-1-((R)-4-((2′-methyl-4′-(sulfamoyloxy)-[1,1′-biphenyl]-3-yl)methyl)morpholine-3-carboxamido)ethyl)benzoic acid]
Emax (human EP4; positive control 10 uM PGE2): 101%
EC50 (human EP4; [2]): 5.01e-10 M

Cc1cc(C(N)=O)ccc1-c1cccc(CN2CCOC[C@@H]2C(=O)N[C@@H](C)c2ccc(C(=O)O)cc2)n1 [Example 2, 4-[(1S)-1-[[(3R)-4-[[6-(4-carbamoyl-2-methyl-phenyl)-2-pyridyl]methyl]-morpholine-3-carbonyl]amino]ethyl]benzoic acid]
Emax (human EP4; positive control 10 uM PGE2): 89%
EC50 (human EP4; [2]): 1e-06 M

Cc1cc(C(N)=O)ccc1-c1cccc(CN2CCOC[C@@H]2C(=O)NC(C)c2cc(F)c(C(=O)O)c(F)c2)c1 (single isomer, unassigned) [Example 26]
Emax (human EP4; positive control 10 uM PGE2): 97%

Source: patent publication US12492174B2, “Morpholine-3-carboxamide derivatives as prostaglandin E2 receptor 4 (EP4) agonists for the treatment of gastrointestinal and pulmonary diseases” (NXERA PHARMA UK LIMITED, priority 2022, dated 2025)
